Measured values published in patent US8053627B2, “Methods for treating demyelination disorders” (University of Chicago, priority 2005, dated 2011).

System: corpus callosum of double transgenic mice treated with cuprizone
Test: Cuprizone-induced demyelination/remyelination in GFAP/tTA; TRE/IFN-γ double transgenic mice (DOX− expresses IFN-γ)
Format: in vivo
Experimental: The effects of IFN-γ on demyelination were evaluated in a cuprizone animal model using transgenic mice that allow for temporally regulated delivery of IFN-γ using the tetracycline controllable system (Lin, et al. (2004) J. Neurosci. 24: 10074-10083). The transgenic mice were generated by mating line 110 GFAP/tTA mice on the C57BL/6 background with line 184 TRE/IFN-γ on the C57BL/6 background to produce GFAP/tTA; TRE/IFN-γ double transgenic mice (Lin, et al. (2004) J. Neurosci. 24: 10074-10083). Transcriptional activation of the TRE/IFN-γ transgene by tTA was repressed in the control (DOX+) mice by adding 0.05 mg/ml doxycycline to the drinking water which was provided ad libitum from the day of conception. The DOX+ double transgenic mice were GFAP/tTA; TRE/IFN-γ double transgenic animals fed cuprizone chow and never released from the doxycycline solution. DOX− double transgenic mice were GFAP/tTA; TRE/IFN-γ double transgenic animals fed cuprizone chow and released from doxycycline to induce expression of IFN-γ.
Demyelination was induced in 6-week-old DOX+ and DOX− male mice by feeding the mice a diet of milled mouse chow containing 0.2% cuprizone (Sigma-Aldrich, St. Louis, […].) for up to 6 weeks. Subsequently, both groups of mice were returned to a normal diet for up to 3 weeks to allow remyelination to occur. All animal procedures were conducted in complete compliance with the NIH Guide for the Care and Use of Laboratory Animals and were approved by the Institutional Animal Care and Use Committee of The University of Chicago.
The expression of IFN-γ in these animals was examined by Enzyme-Linked Immunosorbent Assay (ELISA) analysis as follows. Spinal cord and forebrains were removed, rinsed in ice cold PBS, and immediately homogenized in five volumes of PBS with complete protease cocktail (Roche, Indianapolis, Ind.) using a motorized homogenizer. After incubation on ice for 5 min the extracts were cleared by centrifugation at 14000 rpm for 10 min. The protein content of each extract was determined by the DC protein assay (Bio-Rad, Hercules, Calif.). ELISA assays were performed using Mouse IFN-γ Quantikine ELISA kit (R&D system, Minneapolis, Minn.) and MBP antibodies (1:1000; Sternberger Monoclonals) according to the manufacture's instructions.
Real time PCR was used to determine the effect of IFN-yon the expression of MHC-1. RNA was isolated from the corpus callosum (Jurevics, et al., 2002) using Trizol reagent (Invitrogen, Carlsbad, Calif.) and treated with DNAseI (Invitrogen, Carlsbad, Calif.) to eliminate genomic DNA. Reverse transcription was performed using Superscript First Strand Synthesis System for RT-PCR kit (Invitrogen, Carlsbad, Calif.). Real-time PCR was performed with iQ supermix (Bio-Rad, Hercules Calif.) on a Bio-Rad iQ real-time PCR detection system (Bio-Rad, Hercules Calif.). The primers and probes (Integrated DNA Technologies Inc., Coralville, Iowa) for real-time PCR were as follows:
The effect of INF-γ on the population of oligodendrocytes was evaluated by immunohistochemical analysis of oligodendrocytes using an anti-CC1 antibody (APC7, 1:50; EMD Biosciences, Inc., La Jolla, Calif.) Immunohistochemistry was perfomed on brain sections obtained from mice that were first anesthetized mice and perfused through the left cardiac ventricle with 4% paraformaldehyde in 0.1M PBS. The brains were removed, postfixed with paraformaldehyde, cryopreserved in 30% sucrose, embedded in OCT and frozen on dry ice. Frozen sections were cut in a cryostat at a thickness of 10 μm. […]

**Q.** What does the source list for “IFN-γ: pleotropic cytokine secreted by activated T lymphocytes and natural killer cells; delivered to the CNS by transgene or added as recombinant protein”?
**A.** CC1 positive oligodendrocytes within the corpus callosum (DOX− mice, 8 weeks): 78±12.7 /0.04 mm2; NG2 positive OPCs in the corpus callosum (DOX− mice, week 4 of cuprizone treatment): 46±4.24 /0.04 mm^2; NG2 positive OPCs in the corpus callosum (DOX− mice, week 6): 31.5±0.71 /0.04 mm^2; expression of myelin genes MBP, PLP and CGT (DOX− mice, week 6 and week 8): significantly depressed; remyelinated axons (EM) (DOX− mice, week 8): 26.9%±7%; effect on the initial pathological processes induced by cuprizone exposure (demyelination phase): does not have a significant effect; expression of MHC-I in the corpus callosum (real-time PCR) (during remyelination): significant increase
